Results taken from patent USRE42274E1, “Cyclic peptide CXCR4 antagonists” (Eli Lilly and Company, priority 2007, dated 2011).
pIC50, pKi: −log10 of the molar value. Counter-ions that a name gives are not always drawn. Numbered stars: 1 amine (or outer) side, 2 acyl side, 3 side chain; on linkers, the order of the positions; unused ones are H or OH. Bridge positions count the residues as written; N and C are the ends. Square brackets hold non-standard residues; d marks the D form. Peptide text beside a SMILES is read from it. * marks the point of attachment. Lys(iPr-d6) = deuterated Lys(iPr), [2H]C([2H])([2H])C(NCCCC[C@H](N[*:1])C(=O)[*:2])C([2H])([2H])[2H]; 2Nal = N[C@@H](Cc1ccc2ccccc2c1)C(=O)O; Lys(iPr) = CC(C)NCCCC[C@H](N)C(=O)O; Lys(Me2) = CN(C)CCCC[C@H](N)C(=O)O; Dap = NC[C@H](N)C(=O)O; Bz = O=C(c1ccccc1)*

Key:
CXCR4 [1] = target: T1, CXCR4 (Homo sapiens, UniProt P61073); experiment: Human CXCR4/125I-SDF-1α binding inhibition assay; set-up: human leukemia CCRF-CEM cells (ATCC CCL 119) expressing endogenous CXCR4 are employed; endogenous in cells; host or cells: CCRF-CEM (ATCC CCL 119), whole cells; conditions: for pKi: CCRF-CEM cells expressing endogenous CXCR4, Ki calculated from IC50
T1 sequence (P61073 whole entry): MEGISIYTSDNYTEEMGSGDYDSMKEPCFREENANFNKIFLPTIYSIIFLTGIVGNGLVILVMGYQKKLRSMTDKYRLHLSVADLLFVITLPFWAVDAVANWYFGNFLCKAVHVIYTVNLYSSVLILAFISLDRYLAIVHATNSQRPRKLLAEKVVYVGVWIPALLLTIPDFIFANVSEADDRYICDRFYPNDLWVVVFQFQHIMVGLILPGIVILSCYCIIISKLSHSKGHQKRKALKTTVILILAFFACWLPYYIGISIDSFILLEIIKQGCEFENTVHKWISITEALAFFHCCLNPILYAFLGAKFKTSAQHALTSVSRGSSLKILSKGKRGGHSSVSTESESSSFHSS
Method: “Ki” values are calculated using IC50 values determined in the CXCR4/^125I-SDF-1α binding assay described below by employing equation 7.22 of Enzymes, A Practical Introduction to Structure, Mechanism, and Data Analysis, Robert A. Copeland, Wiley-VCH, New York, 1996, page 207.
Human CXCR4/^125I-SDF-1α Binding Inhibition Assay
SDF-1 binding to CXCR4 is the first step in activating the CXCR4 intracellular signalling pathway. To determine if a compound can block the interaction of SDF-1 and CXCR4, human leukemia CCRF-CEM cells (ATCC CCL 119) expressing endogenous CXCR4 are employed in an ^125I-labeled SDF-1α binding assay. The assay is performed in a 96-well U-bottom, non-treated polystyrene plate (Corning Incorporated, Costar, No. 3632). The binding assay buffer is prepared with RPMI 1640 medium (Gibco, Grand Island, N.Y.) containing 10 mM HEPES, pH 7.5, and 0.2% BSA. Briefly, 200 μL reaction mixtures containing 300 pM SDF ligand (60 pM ^125I-SDF-1α (Perkin Elmer) and 240 pM cold SDF-1α (R&D Systems), different concentrations of the test compound in assay buffer, 100,000 human CCRF-CEM cells, and 0.5 mg SPA beads (Wheatgerm agglutinin beads; Amersham) are incubated at room temperature for 2 hr. Plates are then counted in a 1450 Microbeta Liquid Scintillation and Luminescence Counter (Wallac) in SPA mode. CXCR4 antagonists decrease the bound radioactivity in this assay in a dose-dependent manner. The inhibitory potency (K1 or IC50) of a test compound is calculated using GraphPad Prism software, based on the dose-dependent decrease of bound radioactivity.

CXCR4 [2] = target: T1, CXCR4; experiment: Chemotaxis assay, SDF-1α-induced migration of U937 cells; type: cell-based; set-up: endogenous in cells; conditions: SDF-1α 10 ng/mL
Excerpt: CXCR4/SDF-1 interaction regulates migration (chemotaxis) of cells bearing CXCR4 on their surface. To determine the antagonist and cellular activities of a test compound, a chemotaxis assay using human histiocytic lymphoma U937 cells (ATCC CRL 1593) that express endogenous CXCR4 are employed. Briefly, U937 cells, grown in DMEM medium (Gibco, Grand Island, N.Y.) containing 10% FBS, 1% MEM sodium pyruvate (Gibco), 1% MEM nonessential amino acids (Gibco), and 1% GlutaMAX 1 (Gibco), are harvested and washed once with chemotaxis assay buffer prepared with 1×RPMI medium (Gibco) containing 10 mM HEPES, pH 7.5, and 0.3% BSA. After washing, cells are resuspended in assay buffer at a concentration of 5×10^6 cells/mL. The assay is performed in a 96-well ChemoTx plate (NeuroProbe) according to the manufacturer's directions. […] The plate is then incubated for 60 min at 37° C., and the migrated cells are detected by measuring the absorbance at 492 nm with a Tecan Spectrafluor Plus Microplate Reader (Salzburg, Austria). CXCR4 antagonists inhibit cell migration, reducing the absorbance reading. The inhibitory potency (IC50) of a test compound in this assay is calculated using GraphPad Prism software, based on the dose-dependent decrease of absorbance at 492 nm.

Bioavailability in rats = conditions: rat, in vivo, sc, subcutaneous
Method: (§1) Pharmacologic properties such as compound bioavailability, in vivo metabolic stability, and pharmacokinetic/pharmacodynamic properties can be determined by methods well known in the art of drug development. […] For example, in mice, the half-life (T½) of the compound of Example 58 is about 3 hours. With respect to pharmacodynamic properties, preferred compounds induce prolonged neutrophil and white blood cell mobilization in mice. For example, the compound of Example 25 induces a significant increase of neutrophils and white blood cells in peripheral blood for at least 6 hours after single dose subcutaneous administration at 5 mg/kg in mice.

[3] = In vivo metabolic stability in dog; conditions: up to 24 hours after administration
Method: as §1

[4] = In vivo metabolic stability in monkey; conditions: up to 24 hours after administration
Method: as §1

[5] = target: T2, human chemokine receptor CXCR2 (Homo sapiens, UniProt P25025); experiment: Chemokine receptor binding selectivity assay, ligand binding
T2 sequence (P25025 1-360): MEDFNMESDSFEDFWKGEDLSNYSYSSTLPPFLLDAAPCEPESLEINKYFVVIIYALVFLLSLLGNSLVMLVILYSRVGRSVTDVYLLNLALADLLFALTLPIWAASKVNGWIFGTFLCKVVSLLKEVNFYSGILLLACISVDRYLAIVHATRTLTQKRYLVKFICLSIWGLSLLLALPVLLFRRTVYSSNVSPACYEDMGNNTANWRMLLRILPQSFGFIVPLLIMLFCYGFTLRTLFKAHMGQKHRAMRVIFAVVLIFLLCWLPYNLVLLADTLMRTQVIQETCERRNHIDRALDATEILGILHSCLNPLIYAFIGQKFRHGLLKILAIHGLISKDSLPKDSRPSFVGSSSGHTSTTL
Excerpt: Chemokine Receptor Binding Selectivity Assays
The binding selectivity of the present compounds for the CXCR4 receptor compared to that for other chemokine receptors, such as human CCR1, CCR2, CXCR2, or CXCR3, and other G-protein-coupled receptors, can be assessed in cells transfected with nucleic acid encoding and expressing such receptors, or in cells in which such receptors are endogenously expressed. Whole cells or membrane fragments can be used to assess competition of test compounds with the respective ligands for these receptors in a manner similar to that described above for the CXCR4/^125I-SDF-1α binding inhibition assay.

[6] = test system: neutrophils and white blood cells in peripheral blood; experiment: Compound-induced white blood cell and neutrophil mobilization in C57BL/6 mice; type: in vivo, mouse; conditions: 5 mg/kg
Excerpt: Compound-Induced White Blood Cell and Neutrophil Mobilization in C57BL/6 Mice
Stem cells within the bone marrow actively maintain continuous production of all mature blood cell lineages throughout life. Bone marrow is the primary site for white blood cell (WBC)/neutrophil production and release into the circulation. The CXCR4/SDF-1 axis appears to be critical for the retention and release of WBCs, neutrophils, and hematopoietic progenitor cells in the bone marrow, and interruption of CXCR4/SDF-1 interaction in bone marrow leads to an increase of these cells in peripheral blood. A short-term mouse WBC/neutrophil mobilization model can be used to determine the in vivo target-modulating activity of a test compound. Briefly, pathogen-free 5-6 week old female C57BL/6 mice (Taconic) are housed for at least one week prior to assay. Animals are allowed continuous access to sterilized rodent chow and acidified water. Groups of 5 mice are injected subcutaneously with test compounds in saline, or with saline control, and then sacrificed by CO2 asphyxiation and cervical dislocation at various time points post compound administration. Peripheral blood is collected by cardiac puncture using EDTA-coated syringes and tubes. […] Total WBCs, neutrophils, and lymphocytes in the peripheral blood are recorded. […]

[7] = test system: human non-Hodgkin's lymphoma Namalwa cells; experiment: Anti-tumor activity in a SCID/Namalwa xenograft model; type: in vivo, mouse; conditions: 1 mg/kg BID, subcutaneous
Excerpt: Anti-Tumor Activity in a SCID/Namalwa Xenograft Model
SDF-1/CXCR4 interaction appears to play an important role in multiple stages of tumorigenesis, including tumor growth, invasion, angiogenesis, and metastasis. To evaluate in vivo anti-tumor activity of a test compound, a tumor xenograft model using NOD/SCID mice (Jackson Laboratories) and human non-Hodgkin's lymphoma Namalwa cells (ATCC CRL 1432) are employed. Briefly, 200,000 Namalwa cells mixed with matrigel (1:1) are implanted subcutaneously into the rear flank of the animals. The implanted tumor cells grow as solid tumors, the dimensions of which can be continuously monitored and measured using a caliper. To determine the in vivo efficacy of a test compound in this model, one can treat animals (10/group) with different doses of test compounds dissolved in saline or PBS, beginning 48 hours post tumor cell implantation. Compounds are dosed subcutaneously, and tumor volume and body weight are determined every 2 or 3 days. Studies generally last 3-4 weeks, depending on tumor growth. The anti-tumor growth activity of a test compound is determined by the percent reduction in tumor volume in treatment groups compared to tumor volume in control groups treated with vehicle alone.

CC(=O)N[C@H]1CNC(=O)CC[C@@H](C(=O)N[C@@H](CCCNC(=N)N)C(N)=O)NC(=O)CNC(=O)[C@H](Cc2ccc3ccccc3c2)NC(=O)[C@@H](CCCNC(=N)N)NC(=O)[C@H](CCCNC(=N)N)NC(=O)[C@H](Cc2ccc(O)cc2)NC1=O [Example 1, Ac-cyclo[Dap-Tyr-Arg-DArg-2Nal-Gly-Glu]-Arg-NH2] (Ac-[Dap]YR[dR][2Nal]GER-NH2; lactam 1-7)
pKi (CXCR4 [1]): 8.46

CN(C)CCCC[C@@H]1NC(=O)[C@H](Cc2ccc(O)cc2)NC(=O)[C@@H](NC(=O)c2ccccc2)CC(=O)NC[C@@H](C(=O)N[C@@H](CCCNC(=N)N)C(N)=O)NC(=O)CNC(=O)[C@H](Cc2ccc3ccccc3c2)NC(=O)[C@@H](CCCNC(=N)N)NC1=O [Example 19, Bz-cyclo[Asp-Tyr-Lys(Me2)-DArg-2Nal-Gly-Dap]-Arg-NH2] (Bz-DY[Lys(Me2)][dR][2Nal]G[Dap]R-NH2; lactam 1-7)
pIC50 (CXCR4 [2]): 8.69

CCNC(=O)[C@H](CCCNC(=N)N)NC(=O)[C@H]1CCC(=O)NCC(=O)N[C@@H](Cc2ccc(O)cc2)C(=O)N[C@@H](CCCCNC(C)C)C(=O)N[C@H](CCCNC(=N)N)C(=O)N[C@@H](Cc2ccc3ccccc3c2)C(=O)NCC(=O)N1 [Example 44, cyclo[Gly-Tyr-Lys(iPr)-DArg-2Nal-Gly-DGlu]-Arg-NHEt] (GY[Lys(iPr)][dR][2Nal]G[dE]R-NHEt; lactam N-7)
bioavailability (Bioavailability in rats): ~100%

CC(C)NCCCC[C@@H]1NC(=O)[C@H](Cc2ccc(O)cc2)NC(=O)[C@@H](C)NC(=O)CC[C@H](C(N)=O)NC(=O)CNC(=O)[C@H](Cc2ccc3ccccc3c2)NC(=O)[C@@H](CCCNC(=N)N)NC1=O [Example 50, cyclo[DAla-Tyr-Lys(iPr)-DArg-2Nal-Gly-DGlu]-NH2] ([dA]Y[Lys(iPr)][dR][2Nal]G[dE]-NH2; lactam N-7)
pIC50 (CXCR4 [2]): 9.77
pKi (CXCR4 [1]): 9.55

CC(C)NCCCC[C@H](NC(=O)[C@H]1CCC(=O)N[C@@H](Cc2ccccc2)C(=O)N[C@@H](Cc2ccc(O)cc2)C(=O)N[C@@H](CCCCNC(C)C)C(=O)N[C@H](CCCNC(=N)N)C(=O)N[C@@H](Cc2ccc3ccccc3c2)C(=O)NCC(=O)N1)C(N)=O [Example 57a, cyclo[Phe-Tyr-Lys(iPr)-DArg-2Nal-Gly-DGlu]-Lys (iPr)-NH2.acetic acid salt] (FY[Lys(iPr)][dR][2Nal]G[dE][Lys(iPr)]-NH2; lactam N-7)
metabolites in plasma and urine [3]: no detectable metabolites
metabolites in plasma and urine [4]: no detectable metabolites
pKi [5]: < 4.14

CC(C)NCCCC[C@@H]1NC(=O)[C@H](Cc2ccc(O)cc2)NC(=O)CNC(=O)CC[C@H](C(=O)N[C@@H](CCCCNC(C)C)C(=O)NCC(=O)N[C@@H](Cc2ccc3ccccc3c2)C(N)=O)NC(=O)CNC(=O)[C@H](Cc2ccc3ccccc3c2)NC(=O)[C@@H](CCCNC(=N)N)NC1=O [Example 75, cyclo[Gly-Tyr-Lys(iPr)-DArg-2Nal-Gly-DGlu]-Lys (iPr)-Gly-2Nal-NH2] (GY[Lys(iPr)][dR][2Nal]G[dE][Lys(iPr)]G[2Nal]-NH2; lactam N-7)
pKi (CXCR4 [1]): 10.02

cyclo[Gly-Tyr-Lys(iPr)-DArg-2Nal-Gly-DGlu]-Arg-NH2 (GY[Lys(iPr)][dR][2Nal]G[dE]R-NH2; lactam N-7) [Example 25]
duration of significant increase of neutrophils and white blood cells in peripheral blood ([6]; single dose subcutaneous, mice): at least 6 hours

cyclo[Gly-Tyr-Lys(iPr)-DArg-2Nal-Gly-DGlu]-NH2 (GY[Lys(iPr)][dR][2Nal]G[dE]-NH2; lactam N-7; SMILES CC(C)NCCCC[C@@H]1NC(=O)[C@H](Cc2ccc(O)cc2)NC(=O)CNC(=O)CC[C@H](C(N)=O)NC(=O)CNC(=O)[C@H](Cc2ccc3ccccc3c2)NC(=O)[C@@H](CCCNC(=N)N)NC1=O) [Example 26]
tumor growth inhibition [7]: significantly inhibit tumor growth

cyclo[Gly-Tyr-Lys(iPr)-DArg-2Nal-Gly-Glu]-Arg-NH2 (GY[Lys(iPr)][dR][2Nal]GER-NH2; lactam N-7) [Example 39]
average neutrophil ratio (neutrophil increase in treatment group vs. saline control group) ([6]; 3 hours after compound administration, subcutaneous): 4.6

cyclo[Phe-Tyr-Lys(iPr-d6)-DArg-2Nal-Gly-DGlu]-Lys(iPr-d6)-NH2 (FY[Lys(iPr-d6)][dR][2Nal]G[dE][Lys(iPr-d6)]-NH2; lactam N-7) [Example 89]
target receptor affinity compared to the non-labeled counterpart (CXCR4 [1]; deuterium-labeled peptide vs non-labeled counterpart): identical target receptor affinity
